Laboratory results: US20250195530A1, “POLQ INHIBITORS” (ASTRAZENECA AB, priority 2022, published 2025)

What was measured:
DLD-1 BRCA2−/− cells = assay: Homologous recombination synthetic lethal inhibition of proliferation, DLD-1 BRCA2-/- (Cell Titre Glo 3D); assay type: cell-based; details: mean; for IC50: Homo sapiens, DLD-1, DLD-1 BRCA2 −/−, read-out: POLQ PD Prolif Lumin BRCA2 −/− mean pIC50 (converted); for POLQ PD Prolif Lumin BRCA2 −/− mean pIC50: DLD-1 BRCA2 −/−
Outline: (§1)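 Proliferation of HR-deficient DLD-1 BRCA2−/− versus isogenic wild-type DLD-1 was measured by ATP luminescence (CellTiter-Glo 3D). Compound exposure lasted 12 or 7 days, respectively, with a fresh dose on day 6. IC50 was the concentration halving maximal signal.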

DLD-1 cells = assay: Inhibition of proliferation, DLD-1 BRCA2 wt control (Cell Titre Glo 3D); assay type: cell-based; details: mean; for IC50: Homo sapiens, DLD-1, DLD1 BRCA2 wt, read-out: POLQ PD Prolif Lumin DLD1 mean pIC50 (converted); for POLQ PD Prolif Lumin DLD1 mean pIC50: DLD1 BRCA2 wt
Outline: as §1

Compound	IC50 (DLD-1 BRCA2−/− cells) [nM]	IC50 (DLD-1 cells) [nM]	POLQ PD Prolif Lumin BRCA2 −/− mean pIC50 (DLD-1 BRCA2−/− cells)	POLQ PD Prolif Lumin DLD1 mean pIC50 (DLD-1 cells)
COc1ccc(Cl)cc1Cn1c(-c2cccc(OCCOCC(=O)O)c2Cl)nc2c(OC3(C)CC3)ncnc21 [Example U52, 2-(2-(2-chloro-3-(9-(5-chloro-2-methoxybenzyl)-6-(1-methylcyclopropoxy)-9H-purin-8-yl)phenoxy)ethoxy)acetic acid]	50.1	> 10000		
COc1ccc(Cl)cc1Cn1c(-c2ccc(OCCOC(C)(C)C(=O)O)cc2Cl)nc2c(OC3(C)CC3)ncnc21 [Example U54, 2-(2-(3-chloro-4-(9-(5-chloro-2-methoxybenzyl)-6-(1-methylcyclopropoxy)-9H-purin-8-yl)phenoxy)ethoxy)-2-methylpropanoic acid]	126	> 10000		
COc1ccc(Cl)cc1Cn1c(-c2cccc(CCCC(=O)O)c2Cl)nc2c(OC3(C)CC3)ncnc21 [Example U62, 4-(2-chloro-3-(9-(5-chloro-2-methoxybenzyl)-6-(1-methylcyclopropoxy)-9H-purin-8-yl)phenyl)butanoic acid]	50.1	> 10000		
COc1ccc(Cl)cc1Cn1c(-c2cccc(CCC(=O)O)c2Cl)nc2c(OC3(C)CC3)ncnc21 [Example U64, 3-(2-chloro-3-(9-(5-chloro-2-methoxybenzyl)-6-(1-methylcyclopropoxy)-9H-purin-8-yl)phenyl)propanoic acid]	100	> 10000		
CC1(Oc2ncnc3c2nc(-c2ccc(F)c(OCCC(=O)O)c2Cl)n3Cc2cccc(Cl)c2)CC1 [Example U65, 3-(2-chloro-3-(9-(3-chlorobenzyl)-6-(1-methylcyclopropoxy)-9H-purin-8-yl)-6-fluorophenoxy)propanoic acid]	251	> 10000		
COc1ccc(F)cc1Cn1c(-c2ccc(OCC[C@@H](C)C(=O)O)cc2Cl)nc2c(OC3(C)CC3)ncnc21 [Example U67, (R)-4-(3-chloro-4-(9-(5-fluoro-2-methoxybenzyl)-6-(1-methylcyclopropoxy)-9H-purin-8-yl)phenoxy)-2-methylbutanoic acid]	50.1	> 10000		
COc1ccc(F)cc1Cn1c(-c2ccc(OCC[C@H](C)C(=O)O)cc2Cl)nc2c(OC3(C)CC3)ncnc21 [Example U68, (S)-4-(3-chloro-4-(9-(5-fluoro-2-methoxybenzyl)-6-(1-methylcyclopropoxy)-9H-purin-8-yl)phenoxy)-2-methylbutanoic acid]	39.8	> 10000		
COc1ccc(F)cc1Cn1c(-c2cccc(O[C@H]3CC[C@H](C(=O)O)CC3)c2Cl)nc2c(OC3(C)CC3)ncnc21 [Example U69, (1r,4r)-4-(2-chloro-3-(9-(5-fluoro-2-methoxybenzyl)-6-(1-methylcyclopropoxy)-9H-purin-8-yl)phenoxy)cyclohexane-1-carboxylic acid]			7.4	<5.0
COc1ccc(Cl)cc1Cn1c(-c2cccc(OCC[C@H](C)C(=O)O)c2Cl)nc2c(OC3(C)CC3)ncnc21 [Example U73, (S)-4-(2-chloro-3-(9-(5-chloro-2-methoxybenzyl)-6-(1-methylcyclopropoxy)-9H-purin-8-yl)phenoxy)-2-methylbutanoic acid]	2	> 10000		
COc1ccc(F)cc1Cn1c(-c2cccc(O[C@H]3C[C@@H](C(=O)O)C3)c2Cl)nc2c(OC3(C)CC3)ncnc21 [Example U74, (1s,3s)-3-(2-chloro-3-(9-(5-fluoro-2-methoxybenzyl)-6-(1-methylcyclopropoxy)-9H-purin-8-yl)phenoxy)cyclobutane-1-carboxylic acid]			7.2	<5.0
COc1ccc(Cl)cc1Cn1c(-c2cccc(OCC[C@@H](C)C(=O)O)c2Cl)nc2c(OC3(C)CC3)ncnc21 [Example U75, (R)-4-(2-chloro-3-(9-(5-chloro-2-methoxybenzyl)-6-(1-methylcyclopropoxy)-9H-purin-8-yl)phenoxy)-2-methylbutanoic acid]	2	> 10000		
COc1ccc(C(F)(F)F)cc1Cn1c(-c2ccc(OCC[C@H](C)C(=O)O)cc2Cl)nc2c(OC3(C)CC3)ncnc21 [Example U76, (S)-4-(3-chloro-4-(9-(2-methoxy-5-(trifluoromethyl)benzyl)-6-(1-methylcyclopropoxy)-9H-purin-8-yl)phenoxy)-2-methylbutanoic acid]	200	> 10000		
C[C@H](CCOc1ccc(-c2nc3c(OC4(C)CC4)ncnc3n2Cc2cc(Cl)ccc2C#N)c(Cl)c1)C(=O)O [Example U81, (R)-4-(3-chloro-4-(9-(5-chloro-2-cyanobenzyl)-6-(1-methylcyclopropoxy)-9H-purin-8-yl)phenoxy)-2-methylbutanoic acid]	20	> 10000		
C[C@@H](CCOc1ccc(-c2nc3c(OC4(C)CC4)ncnc3n2Cc2cc(Cl)ccc2C#N)c(Cl)c1)C(=O)O [Example U82, (S)-4-(3-chloro-4-(9-(5-chloro-2-cyanobenzyl)-6-(1-methylcyclopropoxy)-9H-purin-8-yl)phenoxy)-2-methylbutanoic acid]	50.1	> 10000		
COc1ccc(F)cc1Cn1c(-c2cccc(OCCC(=O)O)c2Cl)nc2c(OC3(C)CC3)ncnc21 [Example U83, 3-(2-chloro-3-(9-(5-fluoro-2-methoxybenzyl)-6-(1-methylcyclopropoxy)-9H-purin-8-yl)phenoxy)propanoic acid]	50.1	> 10000		
CC1(Oc2ncnc3c2nc(-c2cccc(O[C@H]4C[C@@H](C(=O)O)C4)c2Cl)n3Cc2cc(Cl)ccc2C#N)CC1 [Example U84, (1s,3s)-3-(2-chloro-3-(9-(5-chloro-2-cyanobenzyl)-6-(1-methylcyclopropoxy)-9H-purin-8-yl)phenoxy)cyclobutane-1-carboxylic acid]			7.3	<5.0
C[C@@H](CCOc1ccc(-c2nc3c(OC4(C)CC4)ncnc3n2Cc2cccc(Cl)c2)c(Cl)c1)C(=O)NCC(=O)O [Example U86, (S)-(4-(3-chloro-4-(9-(3-chlorobenzyl)-6-(1-methylcyclopropoxy)-9H-purin-8-yl)phenoxy)-2-methylbutanoyl)glycine]	2510	> 10000		
C[C@@H](CCOc1cccc(-c2nc3c(OC4(C)CC4)ncnc3n2Cc2cc(Cl)ccc2C#N)c1Cl)C(=O)O [Example U87, (S)-4-(2-chloro-3-(9-(5-chloro-2-cyanobenzyl)-6-(1-methylcyclopropoxy)-9H-purin-8-yl)phenoxy)-2-methylbutanoic acid]	15.8	> 10000		
COc1ccc(C)cc1Cn1c(-c2cccc(OCCC(=O)O)c2Cl)nc2c(OC3(C)CC3)ncnc21 [Example U89, 3-(2-chloro-3-(9-(2-methoxy-5-methylbenzyl)-6-(1-methylcyclopropoxy)-9H-purin-8-yl)phenoxy)propanoic acid]	15.8	7940		
COc1ccc(Cl)cc1Cn1c(-c2cccc(OCCCOC(C)(C)C(=O)O)c2Cl)nc2c(OC3(C)CC3)ncnc21 [Example U90, 2-(3-(2-chloro-3-(9-(5-chloro-2-methoxybenzyl)-6-(1-methylcyclopropoxy)-9H-purin-8-yl)phenoxy)propoxy)-2-methylpropanoic acid]	5.01	> 10000		
COc1ccc(C)cc1Cn1c(-c2cccc(O[C@H]3CC[C@H](C(=O)O)CC3)c2Cl)nc2c(OC3(C)CC3)ncnc21 [Example U91, (1r,4r)-4-(2-chloro-3-(9-(2-methoxy-5-methylbenzyl)-6-(1-methylcyclopropoxy)-9H-purin-8-yl)phenoxy)cyclohexane-1-carboxylic acid]			7.8	<5.0
COc1ccc(C)cc1Cn1c(-c2cccc(OCCCOCC(=O)O)c2Cl)nc2c(OC3(C)CC3)ncnc21 [Example U93, 2-(3-(2-chloro-3-(9-(2-methoxy-5-methylbenzyl)-6-(1-methylcyclopropoxy)-9H-purin-8-yl)phenoxy)propoxy)acetic acid]	12.6	> 10000		
COc1ccc(C)cc1Cn1c(-c2ccc(OCC[C@H](C)C(=O)O)cc2Cl)nc2c(OC3(C)CC3)ncnc21 [Example U94, (S)-4-(3-chloro-4-(9-(2-methoxy-5-methylbenzyl)-6-(1-methylcyclopropoxy)-9H-purin-8-yl)phenoxy)-2-methylbutanoic acid]	50.1	> 10000		
C[C@H](CCOc1cccc(-c2nc3c(OC4(C)CC4)ncnc3n2Cc2cc(Cl)ccc2C#N)c1Cl)C(=O)O [Example U95, (R)-4-(2-chloro-3-(9-(5-chloro-2-cyanobenzyl)-6-(1-methylcyclopropoxy)-9H-purin-8-yl)phenoxy)-2-methylbutanoic acid]	2	> 10000		
CC1(Oc2ncnc3c2nc(-c2cccc(OCCC(=O)O)c2Cl)n3Cc2cc(Cl)ccc2C#N)CC1 [Example U96, 3-(2-chloro-3-(9-(5-chloro-2-cyanobenzyl)-6-(1-methylcyclopropoxy)-9H-purin-8-yl)phenoxy)propanoic acid]	10	> 10000		
CC1(Oc2ncnc3c2nc(-c2cccc(OCCCOCC(=O)O)c2Cl)n3Cc2cc(Cl)ccc2C#N)CC1 [Example U98, 2-(3-(2-chloro-3-(9-(5-chloro-2-cyanobenzyl)-6-(1-methylcyclopropoxy)-9H-purin-8-yl)phenoxy)propoxy)acetic acid]	31.6	> 10000		
